Drawing on PubChem BioAssay AID1259408 (Genetic Toxicology Data Bank (GENE-TOX), 2018), this text covers mutagenic call and call for 27 compounds.

Active and inactive are the calls of the source. The rule behind the calls is not given here.

The subject of the series is GENE-TOX genotoxicity assays, various organisms and cells. Kind of series: GENE-TOX mutagenicity studies. Particulars: for call: Assay Type: In vivo carcinogenicity studies.
[1] abbreviates: Species/Cell Type: Nonhuman, Assay Type: Sister-chromatid exchange (SCE) in vitro, Assay Code: SC2+D, Dose Response: With dose response, Evaluation Type: Evaluation B (Post-1980).
Where [2] appears, read: Species/Cell Type: Rodents, Sex: Male, Assay Type: Dominant lethal test, Assay Code: DLT-, Evaluation Type: Evaluation A (Pre-1980).
The mark [3] stands for this setting: Species/Cell Type: Salmonella typhimurium, Assay Type: Forward and reverse gene mutation, host-mediated assay, Assay Code: HMA+, Evaluation Type: Evaluation A (Pre-1980).
Where [4] appears, read: Species/Cell Type: Salmonella typhimurium (one or more of the five standard strains: TA98, TA100, TA1535, TA1537, and TA1538), Assay Type: Histidine reverse gene mutation, Ames assay, Assay Code: SAL+*, Activation: With metabolic activation, Evaluation Type: Evaluation A (Pre-1980).
[5] abbreviates: Species/Cell Type: Salmonella typhimurium (one or more of the five standard strains: TA98, TA100, TA1535, TA1537, and TA1538), Assay Type: Histidine reverse gene mutation, Ames assay, Assay Code: SAL+, Evaluation Type: Evaluation A (Pre-1980).
Setting [6] is: Species/Cell Type: Salmonella typhimurium (one or more of the five standard strains: TA98, TA100, TA1535, TA1537, and TA1538), Assay Type: Histidine reverse gene mutation, Ames assay, Assay Code: SALT, Evaluation Type: Evaluation A (Pre-1980).
Where [7] appears, read: Species/Cell Type: Drosophila melanogaster, Assay Type: Sex-linked recessive lethal gene mutation, Assay Code: SRL+, Evaluation Type: Evaluation A (Pre-1980).
Where [8] appears, read: Species/Cell Type: Escherichia coli polA (W3119 vs P3478), Assay Type: Rec-assay, DNA effects (bacterial DNA repair), Assay Code: RE1T, Evaluation Type: Evaluation A (Pre-1980).
[9] abbreviates: Species/Cell Type: Human diploid fibroblasts, Assay Type: Unscheduled DNA synthesis (UDS) in vitro, DNA effects, Assay Code: UDH+, Evaluation Type: Evaluation A (Pre-1980).
Where [10] appears, read: Species/Cell Type: Drosophila melanogaster, Assay Type: Sex-linked recessive lethal gene mutation, Assay Code: SRLT, Evaluation Type: Evaluation A (Pre-1980).

For `NNC(=O)c1ccncc1`, the mutagenic call is “active; positive” (Species/Cell Type: Human, Assay Type: Sister-chromatid exchange (SCE) in vitro, Assay Code: SC1+, Evaluation Type: Evaluation B (Post-1980)); “no conclusion” (Species/Cell Type: Mammalian germ cells, Sex: Male, Assay Type: Chromosome aberrations in vivo, Assay Code: CY9T, Evaluation Type: Evaluation A (Pre-1980)); “inactive; negative” (Species/Cell Type: Mammalian oocytes or early embryo, Assay Type: Chromosome aberrations in vivo, Assay Code: CYO-, Evaluation Type: Evaluation A (Pre-1980)); “no conclusion” (Species/Cell Type: Mouse, Sex: Female, Assay Type: Spot test, gene mutation, Assay Code: MSTT, Evaluation Type: Evaluation A (Pre-1980)); “inactive; negative” (Species/Cell Type: Mouse, Sex: Male, Assay Type: Sperm morphology, Assay Code: SPI-, Evaluation Type: Evaluation A (Pre-1980)); “active; positive” under setting [1]. Besides, the mutagenic call (Species/Cell Type: Nonhuman, Assay Type: Sister-chromatid exchange (SCE) in vivo, Assay Code: SC3T, Evaluation Type: Evaluation B (Post-1980)) is “no conclusion”; the mutagenic call (Species/Cell Type: Rabbit, Sex: Male, Assay Type: Sperm morphology, Assay Code: SPR-, Evaluation Type: Evaluation A (Pre-1980)) is “inactive; negative”; the mutagenic call under setting [2] is “inactive; negative”; the mutagenic call (Species/Cell Type: Salmonella typhimurium, Assay Type: Forward and reverse gene mutation, body fluid assay, Assay Code: BFUT, Evaluation Type: Evaluation A (Pre-1980)) is on record as “no conclusion”; the mutagenic call under setting [3] was “active; positive”. The call (Species/Cell Type: Nonhuman, Assay Code: CCG+L, Evaluation Type: Evaluation A (Pre-1980)) was “active; positive”.

As to `C/C=C1/C[C@@H](C)[C@@](C)(O)C(=O)OC/C2=C/CN(C)CC[C@@H](OC1=O)C2=O`, under setting [1], the mutagenic call was “active; positive”.

As to `C=CC=O`, the mutagenic call under setting [1] is “active; positive”.

In the case of `OC(CCl)CCl`, the mutagenic call under setting [4] is “active; positive”.

Take `O=C(O)C1(O)C[C@@H](O)C(O)[C@H](O)C1` (stereo partly drawn): where the note is “Species/Cell Type: Salmonella typhimurium (one or more of the five standard strains: TA98, TA100, TA1535, TA1537, and TA1538), Assay Type: Histidine reverse gene mutation, Ames assay, Assay Code: SAL-, Evaluation Type: Evaluation A (Pre-1980)”, the mutagenic call is “inactive; negative”.

Regarding `CNc1ccc(C(=C2C=CC(=[N+](C)C)C=C2)c2ccc(N(C)C)cc2)cc1`, the mutagenic call (Species/Cell Type: Saccharomyces cerevisiae, Assay Type: Reverse gene mutation, Assay Code: YER-, Evaluation Type: Evaluation A (Pre-1980)) is “inactive; negative”.

With `CN[C@@H]1[C@H](O[C@H]2[C@H](O[C@H]3[C@H](O)[C@@H](O)[C@H](N=C(N)N)[C@@H](O)[C@@H]3N=C(N)N)O[C@@H](C)[C@]2(O)CO)O[C@@H](CO)[C@H](O)[C@H]1O`, the mutagenic call (Species/Cell Type: Vicia faba, Assay Type: Chromosome aberrations, Assay Code: VIC-, Evaluation Type: Evaluation A (Pre-1980)) was “inactive; negative”.

For the compound `O=C1c2cc(O)ccc2-c2ccc(O)c3cccc1c23`, the mutagenic call under setting [4] is “active; positive”.

In the case of `C(CCC1CO1)CC1CO1` (stereo not drawn), the mutagenic call (Species/Cell Type: Neurospora crassa, Assay Type: Forward gene mutation, Assay Code: NEF+, Evaluation Type: Evaluation A (Pre-1980)) is “active; positive” and the mutagenic call under setting [5] is “active; positive”.

`Nc1c(O)cc(S(=O)(=O)O)c2ccccc12`: the mutagenic call under setting [6] is recorded as “no conclusion”.

As for `Cc1cccc2cccnc12`, under setting [4], the mutagenic call was “active; positive”.

For the compound `OCNc1nc(NCO)nc(NCO)n1`, the mutagenic call under setting [7] is “active; positive”.

As to `CCOC(=O)CC(SP(=S)(OC)OC)C(=O)OCC` (stereo not drawn) (tested in a mixture with another compound), the mutagenic call (Species/Cell Type: Hordeum vulgare (barley), Assay Type: Chromosome aberrations, Assay Code: HOC+, Evaluation Type: Evaluation A (Pre-1980)) was “active; positive”.

Consider `Nc1nc(-c2ccc([N+](=O)[O-])s2)cs1`, for which the mutagenic call under setting [5] is “active; positive”.

Regarding `CCN(CC)CCn1c2ccc(CO)c3c2c([n+]1[O-])-c1ccc(Cl)cc1S3`, the mutagenic call is, setting by setting: under setting [5], “active; positive”; under setting [6], “no conclusion”; (Species/Cell Type: Salmonella typhimurium, Assay Type: Forward and reverse gene mutation, body fluid assay, Assay Code: BFU+, Evaluation Type: Evaluation A (Pre-1980)) “active; positive”; under setting [3], “active; positive”.

As to `CC1C(=O)OC2CC[N+]3([O-])CC=C(COC(=O)C(C)(O)C1(C)O)C23` (stereo not drawn), the mutagenic call under setting [7] is “active; positive”.

For the compound `CCCCOc1ccc(CC(=O)OC)cc1CSC(=N)N`, the mutagenic call (Species/Cell Type: Saccharomyces cerevisiae, Assay Type: Reverse gene mutation, Assay Code: YERT, Evaluation Type: Evaluation A (Pre-1980)) is on record as “no conclusion”.

As to `CNC(=O)/C=C(\C)OP(=O)(OC)OC`, the mutagenic call reads like this: (Species/Cell Type: Bacillus subtilis (H17 vs M45), Assay Type: Rec-assay, spot test, DNA effects (bacterial DNA repair), Assay Code: REWT, Evaluation Type: Evaluation A (Pre-1980)) “no conclusion”; (Species/Cell Type: Drosophila melanogaster, Assay Type: Sex-linked recessive lethal gene mutation, Assay Code: SRL-, Evaluation Type: Evaluation A (Pre-1980)) “inactive; negative”; (Species/Cell Type: Escherichia coli WP2 UVRA, Assay Type: Tryptophan reverse gene mutation, Assay Code: WPU-*, Activation: With metabolic activation, Evaluation Type: Evaluation A (Pre-1980)) “inactive; negative”; under setting [8], “no conclusion”; under setting [9], “active; positive”; (Species/Cell Type: Human, Assay Type: Sister-chromatid exchange (SCE) in vitro, Assay Code: SC1+D, Dose Response: With dose response, Evaluation Type: Evaluation B (Post-1980)) “active; positive”. For the same compound, the mutagenic call is, setting by setting: (Species/Cell Type: Mammalian polychromatic erythrocytes, Assay Type: Micronucleus test, chromosome aberrations, Assay Code: MNT+, Evaluation Type: Evaluation B (Post-1980)) “active; positive”; (Species/Cell Type: Saccharomyces cerevisiae, Assay Type: Mitotic recombination or gene conversion, Assay Code: YEH+, Evaluation Type: Evaluation A (Pre-1980)) “active; positive”; under setting [6], “no conclusion”.

For the compound `Nc1ccc(C(=O)O)c(O)c1`, under setting [8], the mutagenic call is “no conclusion”.

As for `S=[Se]=S`, under “Species/Cell Type: Nonhuman, Assay Code: CCG+, Evaluation Type: Evaluation A (Pre-1980)”, the call is “active; positive”.

As to `ClC1=C(Cl)[C@]2(Cl)[C@@H]3[C@@H](Cl)[C@H]4O[C@H]4[C@@H]3[C@@]1(Cl)C2(Cl)Cl`, the mutagenic call was “no conclusion” under setting [10], “inactive; negative” under setting [2] and “no conclusion” under setting [6].

Consider `CCCO`, for which the mutagenic call (Species/Cell Type: Nonhuman, Assay Type: Sister-chromatid exchange (SCE) in vitro, Assay Code: SC2-, Evaluation Type: Evaluation A (Pre-1980)) is “inactive; negative”.

As to `C1O[C@@H]1[C@@H]1CO1`, the mutagenic call (Species/Cell Type: Arabidopsis species, Assay Type: Gene mutation, Assay Code: ARM+, Evaluation Type: Evaluation A (Pre-1980)) was “active; positive”; the mutagenic call (Species/Cell Type: Schizosaccharomyces pombe, Assay Type: Reverse gene mutation, Assay Code: YEZ+, Evaluation Type: Evaluation A (Pre-1980)) was “active; positive”; the mutagenic call (Species/Cell Type: Zea mays (corn), Assay Type: Gene mutation, Assay Code: ZEM+, Evaluation Type: Evaluation A (Pre-1980)) is “active; positive”.

Take `C[C@]12C=CC(=O)C=C1CC[C@@H]1[C@@H]2[C@@H](O)C[C@@]2(C)[C@H]1CC[C@]2(O)C(=O)CO`: the mutagenic call reads like this: (Species/Cell Type: Human lymphocytes, Assay Type: Sister-chromatid exchange (SCE) in vivo, Assay Code: SCY+, Evaluation Type: Evaluation B (Post-1980)) “active; positive”; (Species/Cell Type: Human, Sex: Male, Assay Type: Sperm morphology, Assay Code: SPH+, Evaluation Type: Evaluation A (Pre-1980)) “active; positive”.

For `CS(=O)(=O)O`, the mutagenic call reads like this: under setting [10], “no conclusion”; under setting [8], “no conclusion”.

`CCCCCCCCCCCCCC(=O)ON(C(C)=O)c1ccc2c(c1)Cc1ccccc1-2`: the mutagenic call was “active; positive” under setting [9] and “no conclusion” under setting [6].

Take `O=c1c(=O)c2c3ccccc3cc3ccc4cccc1c4c32`: the mutagenic call by setting is: (Species/Cell Type: Chinese hamster lung (V79) cells, Assay Type: Forward gene mutation at the HPRT or ouabain locus, Assay Code: V79-, Evaluation Type: Evaluation A (Pre-1980)) “inactive; negative”; under setting [6], “no conclusion”.
